Broadly, the IC50 is the concentration that inhibits the measured activity by half. Read a low IC50 as inhibition by little substance. The term inhibition denotes how much of the control response was suppressed.

The target in one test is MMP-13 (Homo sapiens, UniProt P45452). In words: MMP inhibition assay, fluorogenic substrate FS-6, MMP-13. In kind it is biochemical. The following applies: substrate FS-6 2 μM; enzyme and inhibitor incubated 4 h at 25° C. As to the method:
(§1) As reported therein, the inhibitory activity of the compounds of the invention was evaluated on the known fluorogenic substrate (Mca-Lys-Pro-Leu-Gly-Leu-Dpa-Ala-Arg-NH2), shortly referred to as FS-6 (see, as a reference, U. Neumann, Analytical Biochem. 2004, 328, 166-173).
(§2) Recombinant human pro-MMP-2 was supplied by Prof. Gillian Murphy (Department of Oncology, University of Cambridge, UK), while pro-MMP-13 and pro-MMP-14 were purchased from Calbiochem. […] Pro-MMP-14 was activated with trypsin 5 μg/ml for 15 min at 37° C. followed by soybean trypsin inhibitor (SBTI) 23, μg/ml. For assay measurements, the inhibitor stock solutions (DMSO, 100 mM) were further diluted, at seven different concentrations (0.01 nM-100 μM) for each MMP in the fluorimetric assay buffer (FAB: Tris 50 mM, pH=7.5, NaCl 150 mM, CaCl2 10 mM, Brij 35 0.05% and DMSO 1%). Activated enzyme (final concentration 2.9 nM for MMP-2, 1 nM for MMP-14, 0.33 nM for MMP-13) and inhibitor solutions were incubated in the assay buffer for 4 h at 25° C. After the addition of 200 μM solution of the fluorogenic substrate Mca-Lys-Pro-Leu-Gly-Leu-Dpa-Ala-Arg-NH2 (Bachem) (see, for a reference, Neumann, U.; Kubota, H.; Frei, K.; Ganu, V.; Leppert, D. Anal. Biochem. 2004, 328, 166) for all of the enzymes in DMSO (final concentration 2 μM), the hydrolysis was monitored every 15 sec. for 20 min recording the increase in fluorescence (λex=325 nm, λem=395 nm) using a Molecular Device SpectraMax Gemini XS plate reader.
(§3) The assays were performed in triplicate, in a total volume of 200 μl per well, in 96-well microtitre plates (Corning, black, NBS). Control wells lack inhibitor. The MMP inhibition activity was expressed in relative fluorescent units (RFU). Percent of inhibition was calculated from control reactions without the inhibitor. IC50 was determined using the formula: Vi/Vo=1/(1+[I]/IC50), where V, is the initial velocity of substrate cleavage in the presence of the inhibitor at concentration [I] and Vo is the initial velocity in the absence of the inhibitor. Results were analyzed using SoftMax Pro software and GraFit software.

For another test, the target named is T1, MMP-2 (Homo sapiens, UniProt P08253).
T1 construct: supplied by Prof; Gillian Murphy (Department of Oncology, University of Cambridge, UK); not a commercial purchase
T1 sequence (P08253 110-660): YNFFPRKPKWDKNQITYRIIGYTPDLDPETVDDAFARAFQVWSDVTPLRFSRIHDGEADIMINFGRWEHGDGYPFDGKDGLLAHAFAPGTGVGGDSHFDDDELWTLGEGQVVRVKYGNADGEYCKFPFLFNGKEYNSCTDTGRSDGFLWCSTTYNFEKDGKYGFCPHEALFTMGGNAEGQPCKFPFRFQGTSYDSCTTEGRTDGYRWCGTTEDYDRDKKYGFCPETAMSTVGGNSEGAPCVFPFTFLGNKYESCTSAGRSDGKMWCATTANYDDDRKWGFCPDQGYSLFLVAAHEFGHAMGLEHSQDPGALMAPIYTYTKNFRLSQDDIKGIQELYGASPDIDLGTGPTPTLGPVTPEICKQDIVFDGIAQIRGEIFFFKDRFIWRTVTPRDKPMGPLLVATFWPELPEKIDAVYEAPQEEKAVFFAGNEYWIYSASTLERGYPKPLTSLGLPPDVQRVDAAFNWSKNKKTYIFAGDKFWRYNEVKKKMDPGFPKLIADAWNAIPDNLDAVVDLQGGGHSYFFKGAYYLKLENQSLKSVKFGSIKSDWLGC
In words: MMP inhibition assay, fluorogenic substrate FS-6, MMP-2. In kind it is biochemical. The conditions noted are these: substrate FS-6 2 μM; enzyme and inhibitor incubated 4 h at 25° C. The protocol:
as §1, §2, §3

The next test has as its target T2, MMP-14 (Homo sapiens, UniProt P50281).
T2 construct: purchased Calbiochem
In words: MMP inhibition assay, fluorogenic substrate FS-6, MMP-14. The test is classed as biochemical. The conditions noted are these: substrate FS-6 2 μM; enzyme and inhibitor incubated 4 h at 25° C. As to the method:
as §1, §2, §3

For test [1], the system named is HUVEC. In words: pro-apoptotic activity on HUVEC. The test is classed as cell-based, human.
The subject of test [2] is HUVEC. In words: HUVEC growth assay (crystal violet). In kind it is cell-based, human. The protocol: (§4) Compound (2), as a representative compound of the invention, was tested in an in vivo assay to evaluate its inhibitory activity on cancer cells. In particular, HUVEC cultures were purchased from Cascade Biologics (Portland, Oreg.) and cultured in gelatin-coated flasks using M199, 10% FCS (Fetal Calf Serum, Seromed, Milan, Italy) supplemented with FGF (Fibroblast Growth Factor, PeproTech, Inc., Rocky Hill, N.J.) (1 μg aFGF (acidic Fibroblast Growth Factor)+1 μg bFGF (basic Fibroblast Growth Factor)/100 ml medium), EGF (Epidermal Growth Factor) (1 μg/100 ml medium), heparin (10 mg/100 ml medium), (ICN Pharmaceuticals, Inc., Casta Mesa, Calif.), hydrocortisone (Sigma Chemical Co.) (0.1 mg/100 ml medium).
At day 0 cells were plated in 96 microwell plates at 1000 cells in 200 μl of complete culture medium. The inhibitor was added to the cells at different concentrations (10, 100 μM). HUVEC were quantified at 24, 48 and 72 hrs. Indirect optical density (OD) quantification was obtained fixing/staining the cells for 20 minutes with a crystal violet solution [see, for a reference, Fassina, G. et al., Clin Cancer Res, (2004) 10, 4865-73].

The subject of test [3] is HUVEC. In words: HUVEC chemoinvasion in Boyden chambers. The test is classed as cell-based, human. The following applies: 100 μM, 5 hours. The protocol:
as §4, with “N.J.) (1 μg aFGF” left out, “[…].),” for “Casta Mesa, Calif.),”, “medium). HUVEC invasion was assessed in Boyden chambers (Costar) using serum-free fibroblast conditioned medium (FB-CM) as chemoattractants. Cells were treated with the inhibitor at the indicated doses and incubated at 37° C. for 5 hours in humidified atmosphere. Cell invasion was assessed by densitometric scanning of whole filter surface. Each test was performed in triplicate and repeated three times [see, for a reference, Albini, A., et al., Int. J. Dev. Biol., (2004), 48, 563-71].” for “medium).”

Regarding `CC(C)ON([C@H](CCNC(=O)Cc1ccccc1)C(=O)NO)S(=O)(=O)c1ccc(-c2ccccc2)cc1` [Compound 1e, (R)—N-hydroxy-2-(N-isopropoxybiphenyl-4-ylsulfonamido)-4-(2-phenylacetamido)butanamide], the IC50 against MMP-13 came to 1.4 ± 0.1 nM; against MMP-2 it was 1.43 ± 0.1 nM; at MMP-14 it was 80.7 ± 5.4 nM.
In the case of `COc1ccc(-c2ccc(S(=O)(=O)N(OC(C)C)[C@H](CCNC(C)=O)C(=O)NO)cc2)cc1` [Compound 1f, (R)-4-acetamido-N-hydroxy-2-(N-isopropoxy-4′-methoxybiphenyl-4-ylsulfonamido)butanamide], the values for the IC50 against MMP-13, on MMP-2 and against MMP-14 were 0.58 ± 0.04 nM, 0.13 ± 0.03 nM and 23.5 ± 2.2 nM, respectively.
With `CC(=O)NCC[C@H](C(=O)NO)N(OC(C)C)S(=O)(=O)c1ccc(-c2ccccc2)cc1` [Compound 1d, (R)-4-acetamido-N-hydroxy-2-(N-isopropoxybiphenyl-4-ylsulfonamido)butanamide], the IC50 worked out at 0.68 ± 0.1 nM against MMP-13, 0.33 ± 0.02 nM against MMP-2 and 41.1 ± 1.16 nM on MMP-14.
For `CC(C)ON([C@H](CCNC(=O)c1ccccc1)C(=O)NO)S(=O)(=O)c1ccc(-c2ccccc2)cc1` [Compound 1b, (R)—N-(4-(hydroxyamino)-3-(N-isopropoxybiphenyl-4-ylsulfonamido)-4-oxobutyl)benzamide], the IC50 amounted to 4.6 ± 0.1 nM at MMP-13, 1.48 ± 0.17 nM against MMP-2 and 94 nM against MMP-14.
For `COc1ccc(-c2ccc(S(=O)(=O)N(OCCOCCN3CCNCC3)[C@H](CCNC(=O)OCc3ccccc3)C(=O)NO)cc2)cc1` [Compound 1j], in that order: 0.2 ± 0.01 nM, 0.3 ± 0.03 nM and 27 ± 1 nM.
For `COc1ccc(-c2ccc(S(=O)(=O)N(OC(C)C)[C@H](CCNC(=O)Cc3ccccc3)C(=O)NO)cc2)cc1` [Compound 1g, (R)—N-hydroxy-2-(N-isopropoxy-4′-methoxybiphenyl-4-ylsulfonamido)-4-(2-phenylacetamido)butanamide], in that order: 0.25 ± 0.02 nM, 0.37 ± 0.06 nM and 24.7 ± 2.2 nM.
On to `CC(C)ON([C@H](CCNC(=O)OCc1ccccc1)C(=O)NO)S(=O)(=O)c1ccc(-c2ccccc2)cc1` [Reference Compound (5b), reference compound], for which the IC50 was found to be 4.4 ± 0.5 nM on MMP-13, 8.4 ± 0.1 nM against MMP-2 and 240 ± 19 nM against MMP-14.
Regarding `COc1ccc(-c2ccc(S(=O)(=O)N(OC(C)C)[C@H](CCN3C(=O)c4ccccc4C3=O)C(=O)NO)cc2)cc1` [Compound 2, (R)-4-(1,3-dioxoisoindolin-2-yl)-N-hydroxy-2-(N-isopropoxy-4′-methoxybiphenyl-4-ylsulfonamido)butanamide], the figures for the half-maximal inhibitory concentration (IC50) against MMP-13, against MMP-2 and against MMP-14 were 0.19 ± 0.01 nM, 0.67 ± 0.06 nM and 3.9 ± 0.18 nM, respectively. For the same molecule, in the test with HUVEC [1] (at 48 hours), the “induction of programmed cell death” value is reported as “ability to induce programmed cell death”. In the test with HUVEC [1] (high dose (100 μM)), the pro-apoptotic activity result was “some pro-apoptotic activity”. Moreover, in the test on HUVEC [2] (10 and 100 μM, 24, 48 and 72 hrs), the “cell growth inhibition as compared to untreated controls” value was “time and dose dependent cell growth inhibition”. The inhibition at 100 µM in the test on HUVEC [2] (Homo sapiens, 100 μM, starting from 48 hours of treatment, read-out: cell growth inhibition) was 100%. Besides, in the test with HUVEC [3], the “inhibitory activity on endothelial cell migration through a reconstituted basement membrane” value is “significant inhibitory activity”.
In the case of `CC(C)ON([C@H](CCNS(C)(=O)=O)C(=O)NO)S(=O)(=O)c1ccc(-c2ccccc2)cc1` [Compound 1c, (R)—N-hydroxy-2-(N-isopropoxybiphenyl-4-ylsulfonamido)-4-(methylsulfonamido)butanamide], the values for the IC50 on MMP-13, on MMP-2 and against MMP-14 were 2.2 ± 0.3 nM, 0.98 ± 0.12 nM and 95.5 ± 4.5 nM, respectively.

The record behind these values is patent publication US8329751B2, “Compounds having aryl-sulphonamidic structure useful as metalloproteases inhibitors” (Bracco Imaging S.p.A., priority 2007, dated 2012).
